According to ChEMBL document CHEMBL1201862, “PubChem BioAssay data set” (2004):
“And” between values parts separate entries of the source, which are not always exact repeats. Identical values can stand only once.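 These data come from cells grown in 96-well plates and exposed to compound for 48 hours at five concentrations. GI50 = concentration required for 50% inhibition of growth.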 The source made the active and inactive calls. No stated cut-off is given here; in the data, active = GI50 up to about 1.1 µM and inactive = higher.

What was measured:
Experiment in all cases: NCI tumour cell line growth inhibition, 48 h
M14 = system: M14
MCF7 = system: MCF7
UO-31 = system: UO-31
SNB-75 = system: SNB-75
NCI-H460 = system: NCI-H460
Hs-578T = system: Hs-578T
SF-268 = system: SF-268
EKVX = system: EKVX
RXF 393 = system: RXF 393
HL-60 = system: HL-60
A549 = system: A549
BT-549 = system: BT-549
COLO 205 = system: COLO 205
SW-620 = system: SW-620
KM12 = system: KM12
K562 = system: K562
IGROV-1 = system: IGROV-1
TK-10 = system: TK-10
SF-295 = system: SF-295
HOP-92 = system: HOP-92

Structure (SMILES)	GI50 (M14)	GI50 (MCF7)	GI50 (UO-31)	GI50 (SNB-75)	GI50 (NCI-H460)	GI50 (Hs-578T)	GI50 (SF-268)	GI50 (EKVX)	GI50 (RXF 393)	GI50 (HL-60)	GI50 (A549)	GI50 (BT-549)	GI50 (COLO 205)	GI50 (SW-620)	GI50 (KM12)	GI50 (K562)	GI50 (IGROV-1)	GI50 (TK-10)	GI50 (SF-295)	GI50 (HOP-92)
CSc1c(C#N)c(O)n(-c2ccc(C)cc2)c(=O)c1C(C)=O	94.6 µM (inactive)	> 100 µM (inactive)	88.7 µM (inactive)	> 100 µM (inactive)	> 100 µM (inactive)	> 100 µM (inactive)	> 100 µM (inactive)	> 100 µM (inactive)	> 100 µM (inactive)	> 100 µM (inactive)	> 100 µM (inactive)	> 100 µM (inactive)	> 100 µM (inactive)	> 100 µM (inactive)	> 100 µM (inactive)	> 100 µM (inactive)	> 100 µM (inactive)	> 100 µM (inactive)		
C/C(=N\O)c1ccc2cc(Br)c3ccccc3c2c1	18.2 µM (inactive)	17.2 µM (inactive)	15.7 µM (inactive)	28.1 µM (inactive)	16.2 µM (inactive)	23.9 µM (inactive)	26.2 µM (inactive)	19.1 µM (inactive)	14.8 µM (inactive)	20.7 µM (inactive)	37 µM (inactive)	27.5 µM (inactive)		23.1 µM (inactive)	15.6 µM (inactive)	46.8 µM (inactive)	28 µM (inactive)	20.3 µM (inactive)	15.6 µM (inactive)	21 µM (inactive)
COc1ccc(C(OCC2OC(n3cc(C)c(=O)[nH]c3=O)CC2n2cc(Cn3cc(F)c(=O)[nH]c3=O)nn2)(c2ccccc2)c2ccccc2)cc1 (stereo not given)	4.58 µM (inactive)	3.54 µM (inactive)	9.73 µM (inactive)	12.6 µM (inactive)		6.97 µM (inactive)	5.06 µM (inactive)	5.65 µM (inactive)	10.6 µM (inactive)	2.63 µM (inactive)	4.1 µM (inactive)	11.1 µM (inactive)	4.97 µM (inactive)	3.72 µM (inactive)	4.25 µM (inactive)		7.96 µM (inactive)	13.6 µM (inactive)	3.26 µM (inactive)	2.62 µM (inactive)
COc1ccc(-n2c(C)nc3ccc(NC4OCC(O)C(O)C4O)cc3c2=O)cc1 (stereo not given)		43.5 µM (inactive) and 48.4 µM (inactive)	> 100 µM (inactive)	> 100 µM (inactive)	72.9 µM (inactive) and 40.5 µM (inactive)	51.8 µM (inactive) and 41.8 µM (inactive)	> 100 µM (inactive)	> 100 µM (inactive)	22.7 µM (inactive) and 30.1 µM (inactive)	26.4 µM (inactive) and 28.9 µM (inactive)		74.5 µM (inactive)	42.6 µM (inactive) and 83 µM (inactive)	27.1 µM (inactive) and 36.5 µM (inactive)		31.3 µM (inactive) and 30.8 µM (inactive)	> 100 µM (inactive) and 55.1 µM (inactive)	> 100 µM (inactive)	> 100 µM (inactive)	
O=C1c2ccccc2C(=O)N1CC1(C(=O)O)NCCS1(=O)=O (stereo not given)	> 100 µM (inactive)	> 100 µM (inactive)	> 100 µM (inactive)		> 100 µM (inactive)	> 100 µM (inactive)	> 100 µM (inactive)	91.4 µM (inactive)	> 100 µM (inactive)	> 100 µM (inactive)	> 100 µM (inactive)	> 100 µM (inactive)	> 100 µM (inactive)	> 100 µM (inactive)	> 100 µM (inactive)	> 100 µM (inactive)	> 100 µM (inactive)	> 100 µM (inactive)	> 100 µM (inactive)	> 100 µM (inactive)
C/C(CC/C(C)=N/O)=N\O	> 100 µM (inactive)	> 100 µM (inactive)	> 100 µM (inactive)	> 100 µM (inactive)	> 100 µM (inactive)	> 100 µM (inactive)	> 100 µM (inactive)	> 100 µM (inactive)	> 100 µM (inactive)	> 100 µM (inactive)	> 100 µM (inactive)	> 100 µM (inactive)	> 100 µM (inactive)	> 100 µM (inactive)	> 100 µM (inactive)	> 100 µM (inactive)	> 100 µM (inactive)	> 100 µM (inactive)	> 100 µM (inactive)	
CCCCC[C@H]1CC=CC(=O)O1	11.5 µM (inactive)	4.89 µM (inactive)	11 µM (inactive)		5.35 µM (inactive)	7.71 µM (inactive)	5.38 µM (inactive)	17.1 µM (inactive)	2.33 µM (inactive)	2.88 µM (inactive)	5.86 µM (inactive)	4.06 µM (inactive)	3.53 µM (inactive)	3.41 µM (inactive)	3.18 µM (inactive)	5.48 µM (inactive)	5.27 µM (inactive)	9.48 µM (inactive)	10.4 µM (inactive)	10.4 µM (inactive)
C/C(NC(=O)c1ccccc1)=C(/C(=O)c1ccccc1)[C@@H]1OC(C)(C)O[C@@H]1[C@H]1COC(C)(C)O1	30.8 µM (inactive)	40.8 µM (inactive)	15.5 µM (inactive)		20.7 µM (inactive)	27 µM (inactive)	35.6 µM (inactive)	16.4 µM (inactive)	30.2 µM (inactive)	16 µM (inactive)	29.9 µM (inactive)	25.8 µM (inactive)	22.3 µM (inactive)	20.3 µM (inactive)	28.6 µM (inactive)	20.9 µM (inactive)	13.2 µM (inactive)	77.6 µM (inactive)	30.9 µM (inactive)	19.4 µM (inactive)
Cc1ccc2nc3c(=O)[nH]c(=O)nc-3n(C)c2c1C	> 100 µM (inactive)	> 100 µM (inactive)	> 100 µM (inactive)	> 100 µM (inactive)	> 100 µM (inactive)	12.1 µM (inactive)	> 100 µM (inactive)	> 100 µM (inactive)	> 100 µM (inactive)	> 100 µM (inactive)	> 100 µM (inactive)	> 100 µM (inactive)	> 100 µM (inactive)	> 100 µM (inactive)	> 100 µM (inactive)	> 100 µM (inactive)	> 100 µM (inactive)	> 100 µM (inactive)	> 100 µM (inactive)	
COc1ccc(C(=O)c2cc(OC)c(OC)c(OC)c2)cc1OC	8.83 µM (inactive)	2.24 µM (inactive)	3.71 µM (inactive)	4.04 µM (inactive)	3.34 µM (inactive)	2.7 µM (inactive)	7.8 µM (inactive)	> 100 µM (inactive)	2.36 µM (inactive)	2.67 µM (inactive)	4.44 µM (inactive)	5.41 µM (inactive)	4.04 µM (inactive)	3.52 µM (inactive)	0.815 µM (active)	2.28 µM (inactive)	9.68 µM (inactive)	> 100 µM (inactive)	1.82 µM (inactive)	
